Assay results reported in patent US7208500B2, “Thienopyridine-phenylacetamides and their derivatives useful as new anti-angiogenic agents” (Agouron Pharmaceuticals, Inc., priority 2003, dated 2007).

Legend:
[1] = molecular target: T1, unphosphorylated VEGF-R2D50 (FLVK), cytosolic domain of human VEGF-R2 (Homo sapiens, UniProt P35968, DEL940-989/E990V); assay: VEGF-R2 coupled spectrophotometric assay (FLVK); format: biochemical
T1 construct: VEGF-R2D50 contains residues 806–939 and 990–1171; made in house; host or cells: baculovirus/insect cell system
T1 sequence (P35968 with tags, fused parts or gaps DEL940-989/E990V limits assumed): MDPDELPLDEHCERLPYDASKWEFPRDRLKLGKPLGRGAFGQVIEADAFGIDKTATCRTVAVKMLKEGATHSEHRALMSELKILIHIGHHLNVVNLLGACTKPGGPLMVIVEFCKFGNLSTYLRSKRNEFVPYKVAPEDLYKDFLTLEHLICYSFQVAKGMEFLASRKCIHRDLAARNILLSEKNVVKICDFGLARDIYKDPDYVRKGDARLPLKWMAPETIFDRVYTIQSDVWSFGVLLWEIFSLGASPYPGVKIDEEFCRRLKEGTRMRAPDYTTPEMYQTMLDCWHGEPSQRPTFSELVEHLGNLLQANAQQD
From the text: This construct determines the ability of a test compound to inhibit tyrosine kinase activity. A construct (VEGF-R2D50) of the cytosolic domain of human vascular endothelial growth factor receptor 2 (VEGF-R2) lacking the 50 central residues of the 68 residues of the kinase insert domain was expressed in a baculovirus/insect cell system. Of the 1356 residues of full-length VEGF-R2, VEGF-R2D50 contains residues 806–939 and 990–1171, and also one point mutation (E990V) within the kinase insert domain relative to wild-type VEGF-R2. Autophosphorylation of the purified construct was performed by incubation of the enzyme at a concentration of […] in the presence of 3 mM ATP and 40 mM MgCl2 in 100 mM HEPES, pH 7.5, containing 5% glycerol and 5 mM DTT, at 4° C. for 2 h. […] See Parast et al., Biochemistry, 37, 16788–16801 (1998).
The production of ADP from ATP that accompanies phosphoryl transfer was coupled to oxidation of NADH using phosphoenolpyruvate (PEP) and a system having pyruvate kinase (PK) and lactic dehydrogenase (LDH). The oxidation of NADH was monitored by following the decrease of absorbance at 340 nm (e340=6.22 cm^−1 mM^−1) using a Beckman DU 650 spectrophotometer. Assay conditions for phosphorylated VEGF-R2D50 (indicated as FLVK-P in the tables below) were the following: 1 mM PEP; […]; 50 units of LDH/mL; 20 units of PK/mL; 5 mM DTT; 5.1 mM poly(E4Y1); 1 mM ATP; and 25 mM MgCl2 in 200 mM HEPES, pH 7.5. Assay conditions for unphosphorylated VEGF-R2D50 (indicated as FLVK in the tables) were the following: 1 mM PEP; […]; 50 units of LDH/mL; 20 units of PK/mL; 5 mM DTT; 20 mM poly(E4Y1); 3 mM ATP; and 60 mM MgCl2 and 2 mM MnCl2 in 200 mM HEPES, pH 7.5. Assays were initiated with 5 to 40 nM of enzyme. Ki values were determined by measuring enzyme activity in the presence of varying concentrations of test compounds. The percent inhibition at 50 nm (% inhibition@50 nm) was determined by linear least-squares regression analysis of absorpbance as a function of time. The binding inhibitions were fitted to equation as described by Morrison. The data were analyzed using Enzyme Kinetic and Kaleidagraph software.

[2] = molecular target: T2, FGF-R1 intracellular kinase domain (Homo sapiens, UniProt P11362, C488A/C584S/L457V); assay: FGF-R spectrophotometric assay; format: biochemical; conditions: 50 nM test compound; read-out: FGF-P (% inh @ 50 nM)
T2 construct: starting from the endogenous methionine residue 456 to glutamate 766; made in house; host or cells: baculovirus vector expression system
T2 sequence (P11362 456-766 L457V/C488A/C584S): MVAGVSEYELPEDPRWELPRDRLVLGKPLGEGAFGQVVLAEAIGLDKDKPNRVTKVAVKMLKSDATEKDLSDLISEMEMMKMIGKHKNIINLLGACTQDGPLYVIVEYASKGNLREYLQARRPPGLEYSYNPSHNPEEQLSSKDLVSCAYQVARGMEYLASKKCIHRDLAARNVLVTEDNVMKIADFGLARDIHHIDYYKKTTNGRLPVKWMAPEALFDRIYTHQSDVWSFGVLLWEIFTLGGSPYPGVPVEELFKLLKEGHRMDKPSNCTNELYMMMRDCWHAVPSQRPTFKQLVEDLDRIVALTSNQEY
Experimental: The intracellular kinase domain of human FGF-R1 was expressed using the baculovirus vector expression system starting from the endogenous methionine residue 456 to glutamate 766, according to the residue numbering system of Mohammadi et al., Mol. Cell. Biol., 16, 977–989 (1996). In addition, the construct also has the following 3 amino acid substitutions: L457V, C488A, and C584S.
The spectrophotometric assay was carried out as described above for VEGF-R2, except for the following changes in concentration: FGF-R=50 nM, ATP=2 mM, and poly(E4Y1)=15 mM.

Ki [1]	inhibition at 0.05 µM [2]	Compound
< 1 nM	0 to 5%	Cc1cc(C)nc(NC(=O)Cc2ccc(Oc3ccnc4cc(-c5nccn5C)sc34)c(F)c2)c1 [Example 1, N-(4,6-Dimethyl-pyridin-2-yl)-2-{3-fluoro-4-[2-(1-methyl-1H-imidazol-2-yl)-thieno[3,2-b]pyridin-7-yloxy]-phenyl}-acetamide]
> 10 nM	0 to 5%	CNC(=O)Cc1ccc(Oc2ccnc3cc(C(=O)N4CC[C@@H](O)C4)sc23)c(F)c1 [Example 2, 2-{3-Fluoro-4-[2-((R)-3-hydroxy-pyrrolidine-1-carbonyl)-thieno[3,2-b]pyridin-7-yloxy]-phenyl}-N-methyl-acetamide]
–	0 to 5%	Cc1cc(C)nc(NC(=O)Cc2ccc(Oc3ccnc4cc(C(=O)N(C)CCCN(C)C)sc34)cc2)c1 [Example 5, 7-{4-[(4,6-Dimethyl-pyridin-2-ylcarbamoyl)-methyl]-phenoxy}-thieno[3,2-b]pyridine-2-carboxylic acid (3-dimethylamino-propyl)-methyl-amide]
> 10 nM	–	Cc1cccnc1NC(=O)Cc1ccc(Oc2ccnc3cc(C(=O)N4CCC4)sc23)cc1 [Example 26, 2-{4-[2-(Azetidine-1-carbonyl)-thieno[3,2-b]pyridin-7-yloxy]-phenyl}-N-(3-methyl-pyridin-2-yl)-acetamide]
> 10 nM	0 to 5%	O=C(Cc1ccc(Oc2ccnc3cc(C(=O)N4CCC4)sc23)cc1)Nc1ccncc1 [Example 35, 2-{4-[2-(Azetidine-1-carbonyl)-thieno[3,2-b]pyridin-7-yloxy]-phenyl}-N-pyridin-4-yl-acetamide]
–	0 to 5%	Cc1cc(NC(=O)Cc2ccc(Oc3ccnc4cc(C(=O)N5CCC5)sc34)cc2)n[nH]1 [Example 39, 2-{4-[2-(Azetidine-1-carbonyl)-thieno[3,2-b]pyridin-7-yloxy]-phenyl}-N-(5-methyl-1H-pyrazol-3-yl)-acetamide]
> 10 nM	0 to 5%	O=C(Cc1ccc(Oc2ccnc3cc(C(=O)N4CCC4)sc23)cc1)Nc1cc[nH]n1 [Example 40, 2-{4-[2-(Azetidine-1-carbonyl)-thieno[3,2-b]pyridin-7-yloxy]-phenyl}-N-(1H-pyrazol-3-yl)-acetamide]
> 10 nM	0 to 5%	O=C(Cc1ccc(Oc2ccnc3cc(C(=O)N4CCC4)sc23)cc1)Nc1ccon1 [Example 42, 2-{4-[2-(Azetidine-1-carbonyl)-thieno[3,2-b]pyridin-7-yloxy]-phenyl}-N-isoxazol-3-yl-acetamide]
> 10 nM	0 to 5%	Cc1coc(NC(=O)Cc2ccc(Oc3ccnc4cc(C(=O)N5CCC5)sc34)cc2Cl)n1 [Example 54, 2-{4-[2-(Azetidine-1-carbonyl)-thieno[3,2-b]pyridin-7-yloxy]-2-chloro-phenyl}-N-(4-methyl-oxazol-2-yl)-acetamide]
> 10 nM	0 to 5%	O=C(Cc1ccc(Oc2ccnc3cc(C(=O)N4CCC4)sc23)cc1Cl)NCCCN1CCOCC1 [Example 57, 2-{4-[2-(Azetidine-1-carbonyl)-thieno[3,2-b]pyridin-7-yloxy]-2-chloro-phenyl}-N-(3-morpholin-4-yl-propyl)-acetamide]
> 10 nM	0 to 5%	Cc1ccc(CNC(=O)Cc2ccc(Oc3ccnc4cc(-c5nccn5C)sc34)cc2Cl)o1 [Example 58, 2-{2-Chloro-4-[2-(1-methyl-1H-imidazol-2-yl)-thieno[3,2-b]pyridin-7-yloxy]-phenyl}-N-(5-methyl-furan-2-ylmethyl)-acetamide]
> 10 nM	0 to 5%	Cn1ccnc1-c1cc2nccc(Oc3ccc(CC(=O)NCc4cccc(F)c4)c(Cl)c3)c2s1 [Example 59, 2-{2-Chloro-4-[2-(1-methyl-1H-imidazol-2-yl)-thieno[3,2-b]pyridin-7-yloxy]-phenyl}-N-(3-fluoro-benzyl)-acetamide]
> 10 nM	0 to 5%	CNC(=O)Cc1ccc(Oc2ccnc3cc(C(=O)N4CCC4)sc23)cc1Cl [Example 63, 2-{4-[2-(Azetidine-1-carbonyl)-thieno[3,2-b]pyridin-7-yloxy]-2-chloro-phenyl}-N-methyl-acetamide]
> 10 nM	0 to 5%	CNC(=O)Cc1ccc(Oc2ccnc3cc(C(=O)N4CC[C@@H](O)C4)sc23)cc1Cl [Example 64, 2-{2-Chloro-4-[2-((R)-3-hydroxy-pyrrolidine-1-carbonyl)-thieno[3,2-b]pyridin-7-yloxy]-phenyl}-N-methyl-acetamide]
> 10 nM	0 to 5%	CNC(=O)Cc1ccc(Oc2ccnc3cc(-c4nccn4C)sc23)cc1Cl [Example 65, 2-{2-Chloro-4-[2-(1-methyl-1H-imidazol-2-yl)-thieno[3,2-b]pyridin-7-yloxy]-phenyl}-N-methyl-acetamide]
> 10 nM	0 to 5%	CNC(=O)C1(c2ccc(Oc3ccnc4cc(C(=O)N5CC[C@@H](O)C5)sc34)cc2)CC1 [Example 67, 1-{4-[2-((R)-3-Hydroxy-pyrrolidine-1-carbonyl)-thieno[3,2-b]pyridin-7-yloxy]-phenyl}-cyclopropanecarboxylic acid methylamide]
> 10 nM	0 to 5%	CNC(=O)Cc1ccc(Oc2ccnc3cc(C(=O)N4CC[C@H](OC)C4)sc23)cc1 [Example 68, 2-{4-[2-((S)-3-Methoxy-pyrrolidine-1-carbonyl)-thieno[3,2-b]pyridin-7-yloxy]-phenyl}-N-methyl-acetamide]
> 10 nM	5 to 10%	CNC(=O)C(OC)c1ccc(Oc2ccnc3cc(C(=O)N4CC[C@@H](O)C4)sc23)cc1Cl (stereo partly drawn) [Example 70, 2-{2-Chloro-4-[2-((R)-3-hydroxy-pyrrolidine-1-carbonyl)-thieno[3,2-b]pyridin-7-yloxy]-phenyl}-2-methoxy-N-methyl-acetamide]
> 10 nM	0 to 5%	CNC(=O)C(O)c1ccc(Oc2ccnc3cc(C(=O)N4CC[C@@H](O)C4)sc23)cc1Cl (stereo partly drawn) [Example 71, 2-{2-Chloro-4-[2-((R)-3-hydroxy-pyrrolidine-1-carbonyl)-thieno[3,2-b]pyridin-7-yloxy]-phenyl}-2-hydroxy-N-methyl-acetamide]
–	0 to 5%	CNC(=O)C(OC)c1ccc(Oc2ccnc3cc(-c4nccn4C)sc23)cc1Cl (stereo not shown) [Example 72, 2-{2-Chloro-4-[2-(1-methyl-1H-imidazol-2-yl)-thieno[3,2-b]pyridin-7-yloxy]-phenyl}-2-methoxy-N-methyl-acetamide]
–	0 to 5%	CNC(=O)C(O)c1ccc(Oc2ccnc3cc(-c4nccn4C)sc23)cc1Cl (stereo not shown) [Example 73, 2-{2-Chloro-4-[2-(1-methyl-1H-imidazol-2-yl)-thieno[3,2-b]pyridin-7-yloxy]-phenyl}-2-hydroxy-N-methyl-acetamide]
> 10 nM	0 to 5%	CNC(=O)C(O)c1ccc(Oc2ccnc3cc(-c4nc(C(C)(C)O)cs4)sc23)cc1 (stereo not shown) [Example 75, 2-Hydroxy-2-(4-{2-[4-(1-hydroxy-1-methyl-ethyl)-thiazol-2-yl]-thieno[3,2-b]pyridin-7-yloxy}-phenyl)-N-methyl-acetamide]
> 10 nM	0 to 5%	CNC(=O)C(O)c1ccc(Oc2ccnc3cc(C(=O)N4CC[C@@H](OC)C4)sc23)cc1 (stereo partly drawn) [Example 77, 2-Hydroxy-2-{4-[2-((R)-3-methoxy-pyrrolidine-1-carbonyl)-thieno[3,2-b]pyridin-7-yloxy]-phenyl}-N-methyl-acetamide]
> 10 nM	> 10%	CNC(=O)C(=O)c1ccc(Oc2ccnc3cc(C(=O)N4CC[C@@H](OC)C4)sc23)cc1 [Example 78, 2-{4-[2-((R)-3-Methoxy-pyrrolidine-1-carbonyl)-thieno[3,2-b]pyridin-7-yloxy]-phenyl}-N-methyl-2-oxo-acetamide]
